Experiments:
[1] = tested on: CD24 cell surface expression in SKOV3 cells; assay: CD24 flow cytometry analysis in SKOV3 cells; type: cell-based, human; conditions: 3 days, bestatin 10 or 20 μM, tosedostat 5 or 10 μM, vs DMSO
Description: Flow Cytometry Analysis: For cell surface protein staining, 1×10^5-1×10^6 cells were first incubated with Fc receptor blocking solution, Human TruStain FcXTM (BioLegend, Cat #422301) for 10 minutes at room temperature. Cells were washed once in FACS buffer (1×PBS, 1.0% bovine serum albumin (BSA) (Sigma) and 0.2% sodium azide (Sigma), and then incubated with antibodies (given below) for 30 minutes at 4° C. in the dark. Cells were also stained with 7-AAD (Biolegend, Cat #420404) for dead cell exclusion, and flow cytometry analysis was performed using a Bio-Rad ZE5 Cell Analyzer. Following antibodies used in this study (all antibodies were used at 1:50 dilution unless otherwise noted): APC anti-human CD24 (BioLegend, Cat #311118, clone ML5), PE anti-human CD24 (eBioscience, Cat #12-0247-42, clone SN3), APC anti-human CD47 (BioLegend, Cat #323124, clone CC2C6), APC anti-human § 2-microglobulin (BioLegend, Cat #395711, clone […]), PE anti-human HLA-A2 (MHC-class I) (BioLegend, Cat #343305, clone BB7.2), APC anti-human CD11b (BioLegend, Cat #982604, clone ICRF44), APC anti-mouse F4/80 antibody (BioLegend, Cat #123116, clone BM8), APC-streptavidin (Thermo Fisher Scientific, Cat #SA1005, 1:100 dilution), PE anti-Calreticulin (Invitrogen, Catalog #MA5-15382, 1:200 dilution). […]

SKOV3 cells = assay: Cell viability assay (PrestoBlue) in SKOV3 cells; type: cell-based, human; conditions: SKOV3, 5, 10 or 20 μM bestatin vs DMSO (FIG. 6F)
OVCAR8-GFP-Luc cells = assay: Intraperitoneal OVCAR8 xenograft in NSG mice (bioluminescence imaging, ascites, in vivo phagocytosis)
Description: Animal Experiments: All mouse studies were performed in accordance with the Guide for the Care and Use of Laboratory Animals from NIH, and a protocol (202000157) approved by the UMass Chan Medical School Institutional Animal Care and Use Committee (IACUC). Female NSG mice (n=3 per group), 6-7 weeks of age, were injected intraperitoneally with 4×10^6 OVCAR8/EmGFP-luc cells or OVCAR8-ΔGPAA1/EmGFP-luc cells. Tumors were analyzed using bioluminescence imaging beginning 7 days post-engraftment and continuing every 7 days until day 28. Mice were injected intraperitoneally with firefly D-luciferin at 140 mg/kg in PBS and images were acquired 10 min after luciferin injection using an IVIS Spectrum (Perkin Elmer). Total flux was quantified using Living Image 4.0 software (IVIS Imaging Systems).
For macrophage depletion experiments, 200 μl of clodronate liposomes (Liposoma) was administered intraperitoneally every 4 days for 16 days before tumor implantation, followed by injection of 100 μl of clodronate liposomes every 4 days. Depletion of […] was verified by flow cytometry analysis peritoneal lavage using an APC anti-mouse F4/80 antibody (BioLegend, Cat #123116, clone BM8, 1:50 dilution).
[…] Tumors were analyzed by in vivo bioluminescence imaging as described above.
In vivo Phagocytosis Assay: An in vivo phagocytosis assay was performed as described previously (Barkal et al., Nature 2019, 572(7769):392-396). Mice were implanted with 4×10^6 OVCAR8/EmGFP-luc cells as described above and 7 days later bestatin (100 mg/kg) was administered daily by intraperitoneal injection. After 10 days of bestatin treatment, peritoneal ascites was harvested. Single-cell suspensions of ascitic cells were blocked using TruStain FcX (anti-mouse CD16/32 antibody (BioLegend, Cat #101320) for 10 min at room temperature and then stained with an APC anti-mouse F4/80 antibody (BioLegend, Cat #123116, clone BM8, 1:50 dilution) for 30 min on ice in the dark. The percentage of cells undergoing phagocytosis was calculated as the percentage of F4/80+ EmGFP+ double-positive cells in the population.

OVCAR8 cells = assay: Cell viability assay (PrestoBlue) in OVCAR8 cells; type: cell-based, human; conditions: OVCAR8, 5, 10 or 20 μM bestatin vs DMSO (FIG. 6F)
Description: Cell Viability Assay: OVCAR8 cells were transduced with a lentivirus expressing non-silencing (NS) or CD24 shRNA (Table 1) and analyzed for cell viability using PrestoBlue Cell Viability Reagent (Invitrogen™, Cat #A13261) as per the manufacturer's instructions, and relative cell growth was determined. […]

CC(C)C[C@@H](C(=O)N[C@H](C(=O)OC1CCCC1)c1ccccc1)[C@H](O)C(=O)NO [tosedostat]
CD24 cell surface expression (MFI) [1]: reduced

CC(C)C[C@H](NC(=O)[C@@H](O)[C@H](N)Cc1ccccc1)C(=O)O [bestatin]
cell viability (SKOV3 cells): no effect
tumor growth (total flux, in vivo bioluminescence imaging) (OVCAR8-GFP-Luc cells; NSG mice, IP OVCAR8-GFP-Luc, bestatin 100 mg/kg/d IP vs vehicle (FIG. 10C)): significantly reduced
GFP+F4/80+ double-positive cells in ascites (in vivo phagocytosis) (OVCAR8-GFP-Luc cells; bestatin 100 mg/kg daily IP, 10 days, vs vehicle (FIG. 10E)): increase
ascites volume (OVCAR8-GFP-Luc cells; bestatin 100 mg/kg/d IP, 10 days of treatment, vs vehicle (FIG. 10D)): significantly reduced
cell viability (OVCAR8 cells): no effect
